# Results: paper PMC6270026, “Antibacterial and Herbicidal Activity of Ring-Substituted 2-Hydroxynaphthalene-1-carboxanilides” (Molecules, 2013)
# pIC50: −log10 of the molar value. Where “and” joins values, the source holds several entries; their conditions need not be identical. Equal entries are not always repeated.
# Assays:
# [1] = tested on: methicillin-resistant Staphylococcus aureus SA 3202; test: In vitro antibacterial susceptibility testing (broth dilution MIC); assay type: cell-based; details: MRSA, clinical isolate SA 3202, 24 h, 37 °C, read-out: MIC MRSA 3202
# Experimental: (§1) The synthesized compounds were evaluated for in vitro antibacterial activity against representatives of multidrug-resistant bacteria, clinical isolates of methicillin-resistant Staphylococcus aureus (MRSA) 63718, SA 630 and SA 3202 that were obtained from the National Institute of Public Health, Prague, Czech Republic. Staphylococcus aureus ATCC 29213 was used as a reference and quality control strain. Ampicillin (Sigma-Aldrich) was used as the standard. Prior to testing, each strain was passaged onto nutrient agar (Oxoid, Hampshire, UK) with 5% of bovine blood, and bacterial inocula were prepared by suspending a small portion of bacterial colony in sterile phosphate buffered saline (pH 7.2–7.3). The cell density was adjusted to 0.5 McFarland units using a densitometer (Densi-La-Meter, LIAP, Riga, Latvia). The final inoculum was made by 1:20 dilution of the suspension with the Mueller-Hinton broth (MH broth). […] The final concentrations of the evaluated compounds ranging from 256 μg/mL to 0.008 μg/mL. The broth dilution micro-method modified according to NCCLS guidelines in MH broth was used to determine the minimum inhibitory concentration (MIC). Drug-free controls, sterility controls and controls consisted of MH broth and DMSO alone were included. The determination of results was performed visually after 24 h of static incubation in the darkness at 37 °C in an aerobic atmosphere. The MICs were defined as the lowest concentration of the compound at which no visible bacterial growth was observed.
# [2] = tested on: Staphylococcus aureus ATCC 29213; test: as above; assay type: cell-based; details: ATCC29213; Staphylococcus aureus ATCC 29213, 24 h, 37 °C
# Experimental: as §1
# [3] = tested on: methicillin-resistant Staphylococcus aureus SA 630; test: as above; assay type: cell-based; details: MRSA, clinical isolate SA 630, 24 h, 37 °C
# Experimental: as §1
# [4] = tested on: methicillin-resistant Staphylococcus aureus (MRSA) 63718; test: as above; assay type: cell-based; details: clinical isolate MRSA 63718, 24 h, 37 °C
# Experimental: as §1
# [5] = Lipophilicity determination by RP-HPLC (capacity factor log k); assay type: physicochemical; details: isocratic, MeOH 60%/H2O 40%, C18
# Experimental: A HPLC system Agilent 1200 equipped with DAD detector (Agilent, Santa Clara, CA, USA) was used. A chromatographic column Symmetry® C18 5 μm, 4.6 × 250 mm, Part No. WAT054275, (Waters Corp., Milford, MA, USA) was used. The HPLC separation process was monitored and evaluated by EZChrom Elite software ver. 3.3.2 (Agilent). Isocratic elution by a mixture of MeOH p.a. (60%) and H2O-HPLC Mili-Q grade (40%) as a mobile phase was used. The total flow of the column was 1.0 mL/min, injection 20 μL, column temperature 40 °C and sample temperature 10 °C. The detection wavelength 210 nm was chosen. The KI methanolic solution was used for the dead time (tD) determination. Retention times (tR) were measured in minutes. The capacity factors k were calculated according to formula k = (tR − tD)/tD, where tR is the retention time of the solute, whereas tD denotes the dead time obtained using an unretained analyte. Log k, calculated from the capacity factor k, is used as the lipophilicity index converted to log P scale.
# [6] = tested on: photosynthetic electron transport (PET) in spinach chloroplasts; test: Inhibition of photosynthetic electron transport (PET) in spinach chloroplasts; assay type: biochemical, Spinacia oleracea L.; details: DCPIP photoreduction
# Experimental: Chloroplasts were prepared from spinach (Spinacia oleracea L.) according to Masarovicova and Kralova. The inhibition of photosynthetic electron transport (PET) in spinach chloroplasts was determined spectrophotometrically (Genesys 6, Thermo Electron Scientific Instruments, Madison, WI, USA), using an artificial electron acceptor 2,6-dichlorophenol-indophenol (DCPIP) according to Kralova et al., and the rate of photosynthetic electron transport was monitored as a photoreduction of DCPIP. The measurements were carried out in phosphate buffer (0.02 mol/L, pH 7.2) containing sucrose (0.4 mol/L), MgCl2 (0.005 mol/L) and NaCl (0.015 mol/L). The chlorophyll content was 30 mg/L in these experiments and the samples were irradiated (~100 W/m^2 with 10 cm distance) with a halogen lamp (250 W) using a 4 cm water filter to prevent warming of the samples (suspension temperature 22 °C). The studied compounds were dissolved in DMSO due to their limited water solubility. […] The inhibitory efficiency of the studied compounds was expressed by IC50 values, i.e., by molar concentration of the compounds causing 50% decrease in the oxygen evolution rate relative to the untreated control.
# [7] = tested on: Mycobacterium marinum CAMP 5644; test: In vitro antimycobacterial evaluation (broth dilution MIC); assay type: cell-based; details: for MIC: Mycobacterium marinum, CAMP5644, 504 h, M. marinum CAMP 5644, 21 days, 28 °C
# [8] = tested on: Mycobacterium avium subsp. paratuberculosis (CIT03); test: In vitro antimycobacterial evaluation (alamarBlue MIC); assay type: cell-based; details: 264 h, M. avium paratuberculosis CIT03, 11 days, 37 °C
# Experimental: A well characterised clinical isolate of Mycobacterium avium subsp. paratuberculosis (CIT03) was grown in Middlebrook broth (MB), supplemented with Oleic-Albumin-Dextrose-Catalase supplement (OADC, Becton, Dickinson & Comp., Franklin Lakes, NJ, USA) and mycobactin J (2 µg/mL). Identification of this isolate was performed using biochemical and molecular protocols. At log phase growth, a culture sample (10 mL) was centrifuged at 15,000 rpm/20 min using a bench top centrifuge (Model CR 4-12, Jouan Inc., Winchester, VA, USA). Following removal of the supernatant, the pellet was washed in fresh Middlebrook 7H9GC broth and re-suspended in fresh supplemented MB (10 mL). The turbidity was adjusted to match McFarland standard No. 1 (3 × 10^8 cfu) with MB broth. A further 1:20 dilution of the culture was then performed in MB broth. The antimicrobial susceptibility of the mycobacterial species was investigated in a 96-well plate format. In these experiments, sterile deionised water (300 µL) was added to all outer-perimeter wells of the plates to minimize evaporation of the medium in the test wells during incubation. Each evaluated compound (100 µL) was incubated with each of the mycobacterial species (100 µL). Dilutions of each compound were prepared in duplicate. For all synthesized compounds, final concentrations ranged from 1,000 µg/mL to 8 µg/mL. All compounds were prepared in DMSO and subsequent dilutions were made in supplemented MB. The plates were sealed with parafilm and incubated at 37 °C, for 11 days in the case of M. avium paratuberculosis. Following incubation, a 10% addition of alamarBlue (AbD Serotec, Kidlington, UK) was mixed into each well and readings at 570 nm and 600 nm were taken, initially for background subtraction and subsequently after 24 h re-incubation. The background subtraction is necessary for strongly coloured compounds, where the colour may interfere with the interpretation of any colour change. For non-interfering compounds, a blue colour in the well was interpreted as an absence of growth and a pink colour was scored as growth. The minimum inhibitory concentrations (MICs) were initially defined as the lowest concentration which prevented a visual colour change from blue to pink.
# The MICs were defined as the lowest concentration of the compound at which no visible bacterial growth was observed. The MIC value is routinely and widely used in bacterial assays and is a standard detection limit according to the Clinical and Laboratory Standards Institute (CLSI). Isoniazid (Sigma-Aldrich) was used as reference antimycobacterial drug.
# [9] = tested on: M. kansasii DSM 44162; test: In vitro antimycobacterial evaluation (broth dilution MIC); assay type: cell-based; details: Mycobacterium kansasii, DSM44162, 168 h; M. kansasii DSM 44162, 7 days, 37 °C
# [10] = tested on: M. smegmatis ATCC 700084; test: as above; assay type: cell-based, Mycobacterium smegmatis; details: Mycolicibacterium smegmatis, ATCC700084, 72 h; M. smegmatis ATCC 700084, 3 days, 37 °C
SMILES,MIC [1] [µM],MIC [2] [µM],MIC [3] [µM],MIC [4] [µM],log k [5],pIC50 [6],MIC [7] [µM],MIC [8] [µM],MIC [9] [µM],MIC [10] [µM],fold higher activity against M. marinum than isoniazid ([7]; ratio of MIC to isoniazid)
"CC1(C)S[C@@H]2[C@H](NC(=O)[C@H](N)c3ccccc3)C(=O)N2[C@H]1C(=O)O [APC, ampicillin, reference compound]",> 45.8,5.7,> 45.8,> 45.8,0.4337,,,,,,
"COc1ccccc1NC(=O)c1c(O)ccc2ccccc12 [Compound 2a, 2-Hydroxy-N-(2-methoxyphenyl)naphthalene-1-carboxamide]",> 873,> 873,> 873,> 873,0.5121,3.32,> 873,852,> 873,> 873,
"COc1cccc(NC(=O)c2c(O)ccc3ccccc23)c1 [Compound 2b, 2-Hydroxy-N-(3-methoxyphenyl)naphthalene-1-carboxamide]",218,,,,0.6582,3.17,218,426,109,218,
"COc1ccc(NC(=O)c2c(O)ccc3ccccc23)cc1 [Compound 2c, 2-Hydroxy-N-(4-methoxyphenyl)naphthalene-1-carboxamide]",,,,,0.6342,,109,852,218,,
"Cc1ccccc1NC(=O)c1c(O)ccc2ccccc12 [Compound 3a, 2-Hydroxy-N-(2-methylphenyl)naphthalene-1-carboxamide]",,,,,0.7962,3.23,231,451,115,,
"Cc1cccc(NC(=O)c2c(O)ccc3ccccc23)c1 [Compound 3b, 2-Hydroxy-N-(3-methylphenyl)naphthalene-1-carboxamide]",231,231,231,,0.4593,3.43,231,451,115,231,
"Cc1ccc(NC(=O)c2c(O)ccc3ccccc23)cc1 [Compound 3c, 2-Hydroxy-N-(4-methylphenyl)naphthalene-1-carboxamide]",,231,,,0.3751,3.06,115,451,115,,
"O=C(Nc1ccccc1F)c1c(O)ccc2ccccc12 [Compound 4a, N-(2-fluorophenyl)-2-hydroxynaphthalene-1-carboxamide]",455,228,455,455,0.5664,3.61,228,203,114,228,
"O=C(Nc1cccc(F)c1)c1c(O)ccc2ccccc12 [Compound 4b, N-(3-fluorophenyl)-2-hydroxynaphthalene-1-carboxamide]",228,228,> 910,> 910,0.5025,3.67,> 910,> 889,114,> 910,
"O=C(Nc1ccc(F)cc1)c1c(O)ccc2ccccc12 [Compound 4c, N-(4-fluorophenyl)-2-hydroxynaphthalene-1-carboxamide]",> 910,> 910,> 910,> 910,0.5568,3.50,> 910,> 889,> 910,> 910,
"O=C(Nc1cccc(Cl)c1)c1c(O)ccc2ccccc12 [Compound 5b, N-(3-chlorophenyl)-2-hydroxynaphthalene-1-carboxamide]",107,> 860,> 860,> 860,0.7904,4.10,> 860,840,53.7,215,
"O=C(Nc1ccc(Cl)cc1)c1c(O)ccc2ccccc12 [Compound 5c, N-(4-chlorophenyl)-2-hydroxynaphthalene-1-carboxamide]",107,215,> 860,> 860,0.7908,4.23,> 860,420,53.7,> 860,
"O=C(Nc1ccc([N+](=O)[O-])cc1)c1c(O)ccc2ccccc12 [Compound 8c, 2-Hydroxy-N-(4-nitrophenyl)naphthalene-1-carboxamide]",104,,,,0.6260,4.43,~52,811,415,,about 9 fold
"CN(C)C(=O)Nc1ccc(Cl)c(Cl)c1 [DCMU, 3-(3,4-dichlorophenyl)-1,1-dimethylurea, reference compound]",,,,,0.8801,~5.72 and 5.72,,,,,
"NNC(=O)c1ccncc1 [INH, isoniazid, reference compound]",,,,,0.0141,,467,> 1820,,,
